Test system: PGF2 alpha
Assay: Inhibition of prostaglandin F2 alpha levels in UVB-exposed keratinocytes (ELISA)
Assay type: cell-based
Conditions: UVB-induced human keratinocytes; PGF2 alpha measured by ELISA 24 hours post-treatment; FIG. 1
Procedure: Human keratinocytes were harvested and exposed to with UVB light to induce PGF2 alpha release. Following exposure to UVB irradiation, the cells were treated with a composition comprising 1% 4-ethoxybenzaldehyde, Indomethacin (positive control) or left untreated (negative control). After 24 hours post-treatment, PGF2 alpha levels were measured by ELISA analysis.

CCOc1ccc(C=O)cc1 [4-ethoxybenzaldehyde]
inhibition of PGF2 alpha: dose-dependent inhibition

— patent US8865138B2, “Melanin modification compositions and methods of use” (Allergan, Inc., priority 2011, dated 2014)
